Details in all cases: average where tested multiple times
Assay [1] has as its target T1, BCAT2 (Homo sapiens, UniProt O15382).
T1 sequence (O15382 28-392): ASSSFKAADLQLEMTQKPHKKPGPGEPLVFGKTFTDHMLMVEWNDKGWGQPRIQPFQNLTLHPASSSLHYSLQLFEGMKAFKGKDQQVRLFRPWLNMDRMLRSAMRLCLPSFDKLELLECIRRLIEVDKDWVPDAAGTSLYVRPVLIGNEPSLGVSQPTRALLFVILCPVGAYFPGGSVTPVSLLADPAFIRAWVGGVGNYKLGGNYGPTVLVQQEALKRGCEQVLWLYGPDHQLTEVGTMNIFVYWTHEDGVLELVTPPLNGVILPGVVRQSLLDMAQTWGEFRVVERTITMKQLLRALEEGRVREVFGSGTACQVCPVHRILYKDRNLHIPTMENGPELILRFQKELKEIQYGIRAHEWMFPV
The assay can be described thus: BCAT2 in vitro enzyme inhibition assay (resazurin/diaphorase-coupled fluorescence). It is filed as biochemical. Summed up: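 Coupled fluorescence readout: glutamate formed from L-leucine/α-ketoglutarate transamination drives GDH/NAD/diaphorase reduction of resazurin (Ex 540/Em 590). Human BCAT2 was first exposed 1 h at room temperature to compound, top final 100 μM in 3-fold, 10-point series; substrate reaction ran 1 h before SDS quench, in technical duplicate with DMSO max and enzyme-free min controls.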
(In general: The colour change of resazurin is a common sign of viable cells or microbes.)

A further assay has as its target T2, hBCAT1 (Homo sapiens, UniProt P54687).
T2 sequence (P54687 1-386): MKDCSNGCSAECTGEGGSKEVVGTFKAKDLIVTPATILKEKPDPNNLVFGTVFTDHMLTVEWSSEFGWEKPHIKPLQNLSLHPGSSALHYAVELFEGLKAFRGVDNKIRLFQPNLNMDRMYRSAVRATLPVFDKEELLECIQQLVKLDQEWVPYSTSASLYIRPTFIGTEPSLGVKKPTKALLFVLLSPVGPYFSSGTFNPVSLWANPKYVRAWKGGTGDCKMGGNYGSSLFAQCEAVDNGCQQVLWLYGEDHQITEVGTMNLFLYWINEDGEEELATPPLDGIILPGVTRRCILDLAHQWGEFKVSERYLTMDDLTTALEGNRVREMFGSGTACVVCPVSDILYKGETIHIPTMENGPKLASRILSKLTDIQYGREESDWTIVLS
The experiment in a line: BCAT1 in vitro enzyme inhibition assay (resazurin/diaphorase-coupled fluorescence). It is filed as biochemical. The procedure:
BCAT1 In Vitro Enzyme Inhibition Assay
Meanwhile the Substrate Mix was prepared.
Test Compound Preparation:
Test compounds were prepared at 50× final concentration in DMSO, 1 to 3 dilutions were made for 10 points. The compounds were added to the assay as a 1 to 50 dilution (1 μL in 50 μL) to yield a top assay final concentration of 100 μM, decreasing 3-fold for 10 points. […] All tests were performed in technical duplicate.
Where a compound was tested multiple times, the average value of the tests is reported.

Assay [2] addresses T1, BCAT2. The assay can be described thus: BCAT2 in vitro cell inhibition using engineered A549 cells (KMV cell assay, 13C6-KMV by LC-MS/MS). It is filed as cell-based. Further details: The result was an engineered A549 cell line that expressed endogenous BCAT2; endogenous in cells; host or cells: A549 cells with MUT and BCAT1 knocked out by CRISPR/CAS9; key to BCAT2 Cell Inhibition: A: less than or equal to 0.100 μM; B: greater than 0.100 and less than or equal to 0.500 μM; C: greater than 0.500 and less than or equal to 1.000 μM; d: greater than 1.000 μM; E: no fit.

Regarding `CNC(=O)c1cc2nc(-c3ccccn3)n(C3CC(NC(=O)c4ccc(Br)s4)CN(C)C3)c2cc1OC` (stereo not shown) [Example 290, 1-(5-(5-bromothiophene-2-carboxamido)-1-methylpiperidin-3-yl)-6-methoxy-N-methyl-2-(pyridin-2-yl)-1H-benzo[d]imidazole-5-carboxamide], the IC50 (commonly the concentration at which inhibition is half-maximal) against BCAT2 [1] is at most 100 nM; against hBCAT1, over 5000 nM.

Turning to `O=C(N[C@H]1CCC[C@@H](n2c(-c3ncccc3F)nc3cnc(N4CCC4)cc32)C1)c1ccc(Br)s1` [Example 300], the IC50 against BCAT2 [1] is over 1000 nM; on hBCAT1, over 5000 nM.

Regarding `C#Cc1ccc(C(=O)NC2CC(n3c(-c4ccccc4F)nc4cc(C(=O)NC)c(OC)cc43)CN(C)C2)s1` (stereo not shown) [Example 292, 1-(5-(5-ethynylthiophene-2-carboxamido)-1-methylpiperidin-3-yl)-2-(2-fluorophenyl)-6-methoxy-N-methyl-1H-benzo[d]imidazole-5-carboxamide], the figures for the IC50 at BCAT2 [1] and on hBCAT1 were at most 100 nM and 1000 to 5000 nM, respectively.

As to `O=C(N[C@H]1CCC[C@@H](n2c(N3CCCCC3)nc3cnc(-c4nc[nH]n4)cc32)C1)c1ccc(Cl)s1` [Example 372, 5-chloro-N-((1S,3R)-3-(2-(piperidin-1-yl)-6-(1H-1,2,4-triazol-3-yl)-1H-imidazo[4,5-c]pyridin-1-yl)cyclohexyl)thiophene-2-carboxamide], the IC50 is at most 100 nM on BCAT2 [1] and under 500 nM at hBCAT1.

`O=C(NC1CCCC(n2c(-c3ccccn3)nc3cc(-c4nnco4)ncc32)C1)c1ccc(Br)s1` (stereo not shown) [Example 157, N-(3-(6-(1,3,4-oxadiazol-2-yl)-2-(pyridin-2-yl)-3H-imidazo[4,5-c]pyridin-3-yl)cyclohexyl)-5-bromothiophene-2-carboxamide]: the IC50 on BCAT2 [1] is at most 100 nM; against hBCAT1, 1000 to 5000 nM.

On to `C#Cc1ccc(C(=O)N[C@H]2CCC[C@@H](n3c(-c4ccccn4)nc4cc(-c5cnco5)ncc43)C2)s1` [Example 153, 5-ethynyl-N-((1S,3R)-3-(6-(oxazol-5-yl)-2-(pyridin-2-yl)-3H-imidazo[4,5-c]pyridin-3-yl)cyclohexyl)thiophene-2-carboxamide], for which the results for the IC50 on BCAT2 [1] and at hBCAT1 were 100 to 500 nM and over 5000 nM, respectively.

Consider `O=C(NC1CCC(n2c(-c3ccccn3)nc3cnc(-n4ccnn4)cc32)C1)c1ccc(Br)s1` (stereo not shown) [Example 94, 5-bromo-N-(3-(2-(pyridin-2-yl)-6-(1H-1,2,3-triazol-1-yl)-1H-imidazo[4,5-c]pyridin-1-yl)cyclopentyl)thiophene-2-carboxamide], for which the figures for the IC50 against BCAT2 [1] and against hBCAT1 were over 1000 nM and over 5000 nM, respectively.

As to `O=C(N[C@H]1CCC[C@@H](n2c(-c3ccccc3F)nc3cnc(-n4cncn4)cc32)C1)c1ccc(Br)s1` [Example 17, 5-bromo-N-((1S,3R)-3-(2-(2-fluorophenyl)-6-(1H-1,2,4-triazol-1-yl)-1H-imidazo[4,5-c]pyridin-1-yl)cyclohexyl)thiophene-2-carboxamide], the IC50 against BCAT2 [1] was at most 100 nM; against hBCAT1, under 500 nM.

As for `O=C(NC1CCC(n2c(-c3ccccn3)nc3cnc(-n4nccn4)cc32)C1)c1ccc(Br)s1` (stereo not shown) [Example 93, 5-bromo-N-(3-(2-(pyridin-2-yl)-6-(2H-1,2,3-triazol-2-yl)-1H-imidazo[4,5-c]pyridin-1-yl)cyclopentyl)thiophene-2-carboxamide], the IC50 against BCAT2 [1] was 100 to 500 nM; against hBCAT1, over 5000 nM.

In the case of `CC(=O)N1CC(NC(=O)c2ccc(Br)s2)CC(n2c(-c3ccccn3)nc3cc(-c4nnco4)ccc32)C1` (stereo not shown) [Example 282, N-(5-(5-(1,3,4-oxadiazol-2-yl)-2-(pyridin-2-yl)-1H-benzo[d]imidazol-1-yl)-1-acetylpiperidin-3-yl)-5-bromothiophene-2-carboxamide], the values for the 50% inhibitory concentration (IC50) at BCAT2 [1] and against hBCAT1 were 100 to 500 nM and over 5000 nM, respectively.

Turning to `Cc1nsc(-c2cc3c(cn2)nc(CC(C)C)n3[C@@H]2CCC[C@H](NC(=O)c3ncc(Cl)s3)C2)n1` [Example 336, 5-chloro-N-((1S,3R)-3-(2-isobutyl-6-(3-methyl-1,2,4-thiadiazol-5-yl)-1H-imidazo[4,5-c]pyridin-1-yl)cyclohexyl)thiazole-2-carboxamide], the 50% inhibitory concentration (IC50) against BCAT2 [1] lay within 100 to 500 nM; on hBCAT1, 1000 to 5000 nM.

In the case of `CC(C)Cc1nc2cnc(-c3cccc4ccoc34)cc2n1[C@@H]1CCC[C@H](NC(=O)c2ncc(Cl)s2)C1` [Example 327, N-((1S,3R)-3-(6-(benzofuran-7-yl)-2-isobutyl-1H-imidazo[4,5-c]pyridin-1-yl)cyclohexyl)-5-chlorothiazole-2-carboxamide], the half-maximal inhibitory concentration (IC50) at BCAT2 [1] is 100 to 500 nM; at hBCAT1 it was 1000 to 5000 nM.

For the compound `Cn1cc(-c2cc3nc(-c4ccccn4)n(C4CCCC(NC(=O)c5ccc(Br)s5)C4)c3cn2)cn1` (stereo not shown) [Example 156, 5-bromo-N-(3-(6-(1-methyl-1H-pyrazol-4-yl)-2-(pyridin-2-yl)-3H-imidazo[4,5-c]pyridin-3-yl)cyclohexyl)thiophene-2-carboxamide], the IC50 was over 1000 nM on BCAT2 [1] and over 5000 nM against hBCAT1.

For `C#Cc1cnc(C(=O)N[C@H]2CCC[C@@H](n3c(-c4ccccn4)nc4cnc(-n5cncn5)cc43)C2)s1` [Example 27, 5-ethynyl-N-((1S,3R)-3-(2-(pyridin-2-yl)-6-(1H-1,2,4-triazol-1-yl)-1H-imidazo[4,5-c]pyridin-1-yl)cyclohexyl)thiazole-2-carboxamide], the IC50 on BCAT2 [1] is at most 100 nM; on hBCAT1, 1000 to 5000 nM.

As to `O=C(NC1CCCC(n2c(-c3ccccn3)nc3cc(-c4ncon4)ncc32)C1)c1ccc(Br)s1` (stereo not shown) [Example 155, N-(3-(6-(1,2,4-oxadiazol-3-yl)-2-(pyridin-2-yl)-3H-imidazo[4,5-c]pyridin-3-yl)cyclohexyl)-5-bromothiophene-2-carboxamide], the figures for the IC50 against BCAT2 [1] and on hBCAT1 were at most 100 nM and 1000 to 5000 nM, respectively.

With `O=C(N[C@H]1CCC[C@@H](n2c(-c3ccccc3F)nc3cnc(-c4c(F)cccc4F)cc32)C1)c1ncc(Cl)s1` [Example 207, 5-chloro-N-((1S,3R)-3-(6-(2,6-difluorophenyl)-2-(2-fluorophenyl)-1H-imidazo[4,5-c]pyridin-1-yl)cyclohexyl)thiazole-2-carboxamide], the IC50 against BCAT2 [1] was 100 to 500 nM; against hBCAT1 it was over 5000 nM.

`O=C(N[C@H]1CCC[C@@H](n2c(-c3ncccc3F)nc3cnc(N4CCNC4=O)cc32)C1)c1ncc(C(F)F)s1` [Example 54, 5-(difluoromethyl)-N-((1S,3R)-3-(2-(3-fluoropyridin-2-yl)-6-(2-oxoimidazolidin-1-yl)-1H-imidazo[4,5-c]pyridin-1-yl)cyclohexyl)thiazole-2-carboxamide]: the figures for the IC50 on BCAT2 [1] and on hBCAT1 were at most 100 nM and over 5000 nM, respectively.

As to `CO[C@@H]1C[C@@H](NC(=O)c2ncc(Cl)s2)C[C@@H](n2c(CC(C)(C)C)nc3cnc(-c4ccccn4)cc32)C1` (single isomer, unassigned) [Example 441], the IC50 at BCAT2 [1] was over 1000 nM. Moreover, on BCAT2 [2], the “BCAT2 Cell Inhibition” value is listed as “E”.

With `O=C(N[C@H]1CCC[C@@H](n2c(-c3ccccc3F)nc3ccc(-c4ncccn4)cc32)[C@@H]1O)c1ncc(Cl)s1` [Example 466, 5-chloro-N-((1S,2R,3R)-3-(2-(2-fluorophenyl)-6-(pyrimidin-2-yl)-1H-benzo[d]imidazol-1-yl)-2-hydroxycyclohexyl)thiazole-2-carboxamide], the IC50 against BCAT2 [1] and against BCAT2 [2] was at most 100 nM in each case.

For `CO[C@@H]1C[C@@H](NC(=O)c2ncc(Cl)s2)C[C@@H](n2c(-c3ncccc3F)nc3cnc(-c4nc[nH]n4)cc32)C1` (stereo in doubt) [Example 444, 5-chloro-N-((1S,3R,5R)-3-(2-(3-fluoropyridin-2-yl)-6-(1H-1,2,4-triazol-3-yl)-1H-imidazo[4,5-c]pyridin-1-yl)-5-methoxycyclohexyl)thiazole-2-carboxamide], the IC50 against BCAT2 [1] and against BCAT2 [2] was at most 100 nM in each case.

The record behind these values is US20260159512A1, “BCAT2 INHIBITORS” (AGIOS PHARMACEUTICALS, INC., priority 2021, published 2026).
